From patent US7419780B2, “Methods and assays for screening protein targets” (The Trustees of Columbia University in the City of New York, priority 2000, dated 2008)

Assays:
Format in all cases: cell-based, S. cerevisiae
Conditions in all cases: 1 uM small molecule, difference to activity without small molecule, average of two trials
[1] = molecular target: T1, LexA (GSG)2eDHFR / B42 (GSG)rGR2 (UniProt P06536+P0ABQ4, C656G/F620S); experiment: β-galactosidase activity assay, strain V501Y
T1 construct: rat Glucocorticoid Receptor (aa 524-795) with point mutations; expressed in transfected cells; host or cells: S. cerevisiae FY250
T1 sequence (P0ABQ4 1-159): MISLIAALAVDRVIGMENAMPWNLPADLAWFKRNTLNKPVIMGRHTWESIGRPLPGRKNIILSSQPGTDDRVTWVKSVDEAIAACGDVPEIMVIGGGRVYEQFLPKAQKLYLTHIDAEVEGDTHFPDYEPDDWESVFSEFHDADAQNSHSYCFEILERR
T1 sequence (P06536 524-795 F620S/C656G limits assumed): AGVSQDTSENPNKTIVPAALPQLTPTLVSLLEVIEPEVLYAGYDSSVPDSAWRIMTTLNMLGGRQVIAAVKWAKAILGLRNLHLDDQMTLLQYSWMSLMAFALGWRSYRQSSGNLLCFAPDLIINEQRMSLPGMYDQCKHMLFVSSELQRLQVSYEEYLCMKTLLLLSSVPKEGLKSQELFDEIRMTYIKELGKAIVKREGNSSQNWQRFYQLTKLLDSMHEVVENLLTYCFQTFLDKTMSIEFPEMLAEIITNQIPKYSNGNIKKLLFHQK
Excerpt: (§1) Table III explains the components of each strain. Each strain was constructed from the parent yeast strain FY250 and also contains the pMW106 plasmid, which has the LacZ reporter gene that is turned on only in when the LexA DNA binding domain and the B42 activation are brought in tot he vicinity of each other. We use several different strains because we use DHFR from two different species, mDHFR is from murine, while eDHFR is from E. coli. We are asl oable to switch the small moleculebinding domains. For example, the strain containing LexA-eDHFR with B42-rGH2 is a different strain and behaves differently from the strain containing LexA-rGR2 with B42-eDHFR. We also put in short 6 amino acid linkers between the two domains of our protein chimeras and thus these are different strain as well.
(§2) The results in Table IV are averages of two separate trials. Each strain was examined with small molecules and without small molecules. The absolute activity is given as the β-galactisidase activity […]. The average β-galactosidse activity for a strain without small molecule (i.e. the negative control) was about 100 β-galactosidase units.

[2] = molecular target: T2, LexA (GSG)2rGR2 / B42 (GSG)2eDHFR (UniProt P06536+P0ABQ4, C656G/F620S); experiment: β-galactosidase activity assay, strain V510Y
T2 construct: rat Glucocorticoid Receptor (aa 524-795) with point mutations; expressed in transfected cells; host or cells: S. cerevisiae FY250
T2 sequence (P06536 524-795 F620S/C656G limits assumed): T1 sequence (P06536 524-795 F620S/C656G limits assumed)
T2 sequence (P0ABQ4 1-159): T1 sequence (P0ABQ4 1-159)
Excerpt: as §1, §2

LexA rGR2 / B42 mDHFR = molecular target: T3, LexA rGR2 / B42 mDHFR (UniProt P00375+P06536, C656G/F620S); experiment: β-galactosidase activity assay, strain V507Y
T3 construct: rat Glucocorticoid Receptor (aa 524-795) with point mutations; expressed in transfected cells; host or cells: S. cerevisiae FY250
T3 sequence (P06536 524-795 F620S/C656G limits assumed): T1 sequence (P06536 524-795 F620S/C656G limits assumed)
T3 sequence (P00375 1-187): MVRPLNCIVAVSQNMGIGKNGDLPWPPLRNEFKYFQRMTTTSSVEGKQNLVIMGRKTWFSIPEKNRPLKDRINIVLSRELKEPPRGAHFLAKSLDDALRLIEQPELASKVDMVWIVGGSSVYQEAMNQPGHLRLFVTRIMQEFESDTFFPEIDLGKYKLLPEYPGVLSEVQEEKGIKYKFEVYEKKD
Excerpt: as §1, §2

[3] = molecular target: T4, LexA (GSG)2eDHFR / B42 rGR2 (UniProt P06536+P0ABQ4, C656G/F620S); experiment: β-galactosidase activity assay, strain V498Y
T4 construct: rat Glucocorticoid Receptor (aa 524-795) with point mutations; expressed in transfected cells; host or cells: S. cerevisiae FY250
T4 sequence (P0ABQ4 1-159): T1 sequence (P0ABQ4 1-159)
T4 sequence (P06536 524-795 F620S/C656G limits assumed): T1 sequence (P06536 524-795 F620S/C656G limits assumed)
Excerpt: as §1, §2

[4] = molecular target: T5, LexA mDHFR / B42 (GSG)rGR2 (UniProt P00375+P06536, C656G/F620S); experiment: β-galactosidase activity assay, strain V497Y
T5 construct: rat Glucocorticoid Receptor (aa 524-795) with point mutations; expressed in transfected cells; host or cells: S. cerevisiae FY250
T5 sequence (P00375 1-187): T3 sequence (P00375 1-187)
T5 sequence (P06536 524-795 F620S/C656G limits assumed): T1 sequence (P06536 524-795 F620S/C656G limits assumed)
Excerpt: as §1, §2

LexA rGR2 / B42 eDHFR = molecular target: T6, LexA rGR2 / B42 eDHFR (UniProt P06536+P0ABQ4, C656G/F620S); experiment: β-galactosidase activity assay, strain V505Y
T6 construct: rat Glucocorticoid Receptor (aa 524-795) with point mutations; expressed in transfected cells; host or cells: S. cerevisiae FY250
T6 sequence (P06536 524-795 F620S/C656G limits assumed): T1 sequence (P06536 524-795 F620S/C656G limits assumed)
T6 sequence (P0ABQ4 1-159): T1 sequence (P0ABQ4 1-159)
Excerpt: as §1, §2

[5] = molecular target: T7, LexA (GSG)2mDHFR / B42 (GSG)rGR2 (UniProt P00375+P06536, C656G/F620S); experiment: β-galactosidase activity assay, strain V504Y
T7 construct: rat Glucocorticoid Receptor (aa 524-795) with point mutations; expressed in transfected cells; host or cells: S. cerevisiae FY250
T7 sequence (P00375 1-187): T3 sequence (P00375 1-187)
T7 sequence (P06536 524-795 F620S/C656G limits assumed): T1 sequence (P06536 524-795 F620S/C656G limits assumed)
Excerpt: as §1, §2

[6] = molecular target: T8, LexA (GSG)2rGR2 / B42 mDHFR (UniProt P00375+P06536, C656G/F620S); experiment: β-galactosidase activity assay, strain V508Y
T8 construct: expressed in transfected cells; host or cells: S. cerevisiae FY250 with pMW106 lacZ reporter
T8 sequence (P06536 524-795 F620S/C656G limits assumed): T1 sequence (P06536 524-795 F620S/C656G limits assumed)
T8 sequence (P00375 1-187): T3 sequence (P00375 1-187)
Excerpt: as §1, §2

[7] = molecular target: T9, LexA mDHFR / B42 gly6rGR2 (UniProt P00375+P06536, C656G/F620S); experiment: β-galactosidase activity assay, strain V496Y
T9 construct: rat Glucocorticoid Receptor (aa 524-795) with point mutations; expressed in transfected cells; host or cells: S. cerevisiae FY250
T9 sequence (P00375 1-187): T3 sequence (P00375 1-187)
T9 sequence (P06536 524-795 F620S/C656G limits assumed): T1 sequence (P06536 524-795 F620S/C656G limits assumed)
Excerpt: as §1, §2

[8] = molecular target: T10, LexA eDHFR / B42 gly6rGR2 (UniProt P06536+P0ABQ4, C656G/F620S); experiment: β-galactosidase activity assay, strain V375Y
T10 construct: rat Glucocorticoid Receptor (aa 524-795) with point mutations; expressed in transfected cells; host or cells: S. cerevisiae FY250
T10 sequence (P0ABQ4 1-159): T1 sequence (P0ABQ4 1-159)
T10 sequence (P06536 524-795 F620S/C656G limits assumed): T1 sequence (P06536 524-795 F620S/C656G limits assumed)
Excerpt: as §1, §2

Compound: C[C@@H]1C[C@H]2C3CCC4=CC(=O)C=C[C@]4(C)[C@@]3(F)[C@@H](O)C[C@]2(C)[C@@]1(O)C(=O)NCCSCCCCCCCCCCSCC[C@H](NC(=O)c1ccc(N(C)Cc2cnc3nc(N)nc(N)c3n2)cc1)C(=O)O (stereo partly shown) [D10M]
- B-gal activity [1]: 2286 β-galactosidase units
- B-gal activity [2]: 2314 β-galactosidase units
- B-gal activity (LexA rGR2 / B42 mDHFR): −14 β-galactosidase units
- B-gal activity [3]: 2926 β-galactosidase units
- B-gal activity [4]: 308 β-galactosidase units
- B-gal activity (LexA rGR2 / B42 eDHFR): 1160 β-galactosidase units
- B-gal activity [5]: 556 β-galactosidase units
- B-gal activity [6]: 5 β-galactosidase units
- B-gal activity [7]: 740 β-galactosidase units
- B-gal activity [8]: 9993 β-galactosidase units
